Data: patent US10801050B2, “Microorganism modified for the assimilation of levulinic acid” (priority 2015, dated 2020)

Assay: In vitro validation of enzymatic activities: LC-MS/MS detection of levulinyl-CoA after incubation of purified proteins with substrates
Assay type: biochemical, Ralstonia eutropha
Conditions: purified proteins incubated with their respective substrates; reverse phase UPLC, negative ion MS/MS
Excerpt: To validate the activity of the candidates identified in Example 2 above with regard to reactions A1, A2 and B, their corresponding genes were cloned into the expression plasmid pPAL7 (Biorad®). In the case of QOKBZ9_CUPNH and Q0KC00_CUPNH, the corresponding genes were cloned in operon into the pPAL7. The resulting plasmids were transformed into E. coli BL21(DE3) strain.
The resulting strains were cultivated as described in patent application WO 2010/076324, incorporated herein by reference. Cells were collected by centrifugation and resuspended in potassium phosphate buffer 100 mM pH 7.6. Proteins were extracted by sonication and crude extracts were clarified by centrifugation. Recombinant protein purification was carried out using Biorad® PROfinity EXact cartridges according to the manufacturer's instructions. […]
Levulinyl-CoA was detected by reverse phase UPLC coupled to negative ion MS/MS, by searching for the transition from mass 864 (mass of levulinyl-CoA minus 1) to 408 (ion corresponding to the adenine part according to the protocol described by Zirrolli et al. 1994) as shown on FIG. 3.

Q0KBZ9_CUPNH/Q0KC00_CUPNH: the 2 subunits of succinyl-CoA:3-ketoacid-coenzyme A transferase (EC 2.8.3.5), candidate for reaction A2
detection of levulinyl-CoA in the reaction mixture (transition 864 to 408): presence of levulinyl-CoA
